Measurements taken from PubChem BioAssay (NCI).
Values joined by “and” are separate entries in the source; they are usually repeats but may differ in a detail not shown here. Equal entries are not always repeated.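 Cultured in 96-well plates, cells were exposed to test compound for 48 hours across five concentrations. The concentration for 50% growth inhibition is given as GI50. Definition used: TGI = concentration required for complete inhibition of growth.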 Where a SMILES comes first, the peptide text is derived from it. Peptide text beside a SMILES is read from it. [ ]: non-standard residue; d: D form. The star is where a group is joined. * marks the point of attachment. Phe(4-NO2) = N[CH](Cc1ccc([N+](=O)[O-])cc1)C(=O)O; Boc = CC(C)(C)OC(=O)*; OtBu = CC(C)(C)O*

Legend:
Assay in all cases: growth of human tumour cells (NCI), 48 h
HCT-15 colon = test system: HCT-15 colon
MALME-3M melanoma = test system: MALME-3M melanoma
MCF7 breast = test system: MCF7 breast
MDA-MB-231 breast = test system: MDA-MB-231 breast
NCI-H226 lung = test system: NCI-H226 lung
NCI-H522 lung = test system: NCI-H522 lung
RXF 393 renal = test system: RXF 393 renal
SF-268 CNS = test system: SF-268 CNS
TK-10 renal = test system: TK-10 renal
UO-31 renal = test system: UO-31 renal

Compound	TGI (HCT-15 colon)	TGI (MALME-3M melanoma)	TGI (MCF7 breast)	TGI (MDA-MB-231 breast) [µM]	TGI (NCI-H226 lung) [µM]	TGI (NCI-H522 lung)	TGI (RXF 393 renal)	TGI (SF-268 CNS)	TGI (TK-10 renal)	TGI (UO-31 renal)	GI50 (MALME-3M melanoma)	GI50 (MDA-MB-231 breast) [µM]	GI50 (NCI-H522 lung)	GI50 (RXF 393 renal)	GI50 (SF-268 CNS)	GI50 (HCT-15 colon) [µM]	GI50 (MCF7 breast) [µM]	GI50 (NCI-H226 lung) [µM]	GI50 (UO-31 renal) [µM]
CCOC(=O)Cc1nc2c(=O)[nH]cnc2n1C1OC(COC(C)=O)C(OC(C)=O)C1OC(C)=O (stereo unspecified)	> 100 µM	> 100 µM	> 100 µM	> 100	> 100	> 100 µM	> 100 µM	> 100 µM	> 100 µM	> 100 µM	–	–	–	–	–	–	–	–	–
c1ccc(COc2ncccc2C2SCCCS2)cc1	> 100 µM	> 100 µM	> 100 µM	> 100	> 100	> 100 µM	> 100 µM	> 100 µM	> 100 µM	> 100 µM	–	–	–	–	–	–	–	–	–
OCc1ccccc1OC1OC(CO)C(O)C(O)C1O (stereo unspecified)	> 100 µM	> 100 µM	> 100 µM	> 100	> 100	> 100 µM	> 100 µM	> 100 µM	> 100 µM	> 100 µM	–	–	–	–	–	–	–	–	–
COC1(OC)N=C(N)C2(C#N)/C(=N/N(C)C)CC(C)C12C#N (stereo unspecified)	> 100 µM	> 100 µM	> 100 µM	> 100	> 100	> 100 µM	> 100 µM	> 100 µM	> 100 µM	> 100 µM	–	–	–	–	–	–	–	–	–
COC(=O)CNC(=O)/C=C/[C@H](O[Si](C)(C)C(C)(C)C)[C@H](/C=C/C(=O)NCC(=O)OC)O[Si](C)(C)C(C)(C)C	> 25 µM	> 25 µM	> 25 µM	> 25	> 25	> 25 µM	> 25 µM	> 25 µM	> 25 µM	> 25 µM	–	–	–	–	–	–	–	–	–
CSC1(SC)CCCCCCCCCCC1	> 100 µM	70.9 µM	38.1 µM	> 100	> 100	34.9 µM	> 100 µM	> 100 µM	> 100 µM	> 100 µM	–	–	–	–	–	–	–	–	–
COC(=O)CCc1ccc2c(c1)CC1(C2)Cc2ccc(CCC(=O)OC)cc2C1	> 100 µM	> 100 µM	> 100 µM	> 100	> 100	> 100 µM	> 100 µM	–	> 100 µM	> 100 µM	–	–	–	–	–	–	–	–	–
CN(C)CCNc1nc2ccccc2c2c1C(=O)c1ccccc1-2	1.57 µM	1.12 µM	1.87 µM	2.62	0.862	0.895 µM	1.13 µM	2.4 µM	10.5 µM	3.17 µM	–	–	–	–	–	–	–	–	–
C=C1c2nc3ccccc3n2C=C(c2ccccc2)N1c1ccc(OC)cc1	20.3 µM	44.8 µM	24.1 µM	> 100	35.6	16.1 µM	83.5 µM	–	26.1 µM	26.6 µM	–	–	–	–	–	–	–	–	–
Cc1nn(C(=O)c2ccccc2O)c2c1C(c1ccc(O)cc1)SC(N)=N2 (stereo unspecified)	> 10 µM	> 10 µM	> 10 µM	> 10	> 6.22	> 10 µM	> 10 µM	> 10 µM	> 10 µM	> 10 µM	–	–	–	–	–	–	–	–	–
CN1C/C(=C\c2ccccc2[N+](=O)[O-])C(=O)/C(=C/c2ccccc2[N+](=O)[O-])C1	0.527 µM and 0.696 µM	2.73 µM and 0.505 µM	1.94 µM and 3.04 µM	0.911	16.3	1.05 µM and 0.396 µM	1.13 µM and 0.485 µM	7.23 µM and 2.86 µM	2.42 µM and 2.17 µM	1.28 µM and 1.12 µM	1.29 µM and 0.216 µM	0.284	0.437 µM and 0.187 µM	0.477 µM and 0.191 µM	1.78 µM and 0.737 µM	–	–	–	–
O=C(Nc1ccccc1)N1N=C(c2ccccc2)C1c1ccccc1 (stereo unspecified)	> 100 µM	64.2 µM	51.8 µM	> 100	37.3	37 µM	44.5 µM	50.8 µM	> 100 µM	69.6 µM	–	–	–	–	–	–	–	–	–
Clc1ncc(C(Cl)(Cl)Cl)nc1-c1ccccc1	3.42 µM	19.1 µM	3.44 µM	3.86	39.4	6.72 µM	3.3 µM	5.09 µM	5.39 µM	3.34 µM	–	–	–	–	–	–	–	–	–
CN(C)CCn1c(=O)c2ccc(NCCNCCO)c3c(=O)c4cc(O)ccc4n(c1=O)c23	53.8 µM	17.1 µM	6.23 µM	3.37	5.71	3.58 µM	3.73 µM	14.9 µM	21.1 µM	28.2 µM	–	–	–	–	–	–	–	–	–
COc1ccc(C[C@H]2COC(=O)[C@@H]2Cc2cc(OC)c(OC)c(OC)c2)cc1OC	> 100 µM	> 100 µM	> 100 µM	> 100	> 100	> 100 µM	> 100 µM	> 100 µM	> 100 µM	> 100 µM	–	–	–	–	–	–	–	–	–
COc1ccc(S(=O)(=O)Nc2ccc(-c3csc(N4C(=O)/C(=C/C=C\c5ccccc5)N=C4c4ccccc4)n3)cc2)cc1Cl	51.5 µM	63.1 µM	> 100 µM	51.6	> 100	47.3 µM	62.5 µM	56.3 µM	> 100 µM	58.6 µM	–	–	–	–	–	–	–	–	–

Compound	TGI (HCT-15 colon)	TGI (MALME-3M melanoma)	TGI (MCF7 breast)	TGI (MDA-MB-231 breast) [µM]	TGI (NCI-H226 lung) [µM]	TGI (NCI-H522 lung)	TGI (RXF 393 renal)	TGI (SF-268 CNS)	TGI (TK-10 renal)	TGI (UO-31 renal)	GI50 (MALME-3M melanoma)	GI50 (MDA-MB-231 breast) [µM]	GI50 (NCI-H522 lung)	GI50 (RXF 393 renal)	GI50 (SF-268 CNS)	GI50 (HCT-15 colon) [µM]	GI50 (MCF7 breast) [µM]	GI50 (NCI-H226 lung) [µM]	GI50 (UO-31 renal) [µM]
CN(Cc1nc2c(N)nc(N)nc2nc1N)c1ccc(C(=O)NC(CCC(=O)O)C(=O)O)cc1 (stereo unspecified)	> 100 µM	> 100 µM	> 100 µM	> 100	> 100	> 100 µM	> 100 µM	> 100 µM	> 100 µM	> 100 µM	–	–	–	–	–	–	–	–	–
CCC1(O)CN(CCOC)[C@H]2C[C@@H]1C(=O)c1[nH]c3ccccc3c12 (stereo partly specified)	> 100 µM	> 100 µM	> 100 µM	> 100	> 100	> 100 µM	> 100 µM	> 100 µM	> 100 µM	> 100 µM	–	–	–	–	–	–	–	–	–
COc1cc(/C=C2\C[C@H]3[C@@H]4CC=C5C[C@@H](N6CCCC6)CC[C@]5(C)[C@H]4CC[C@]3(C)[C@H]2OC(C)=O)cc(OC)c1OC	25.1 µM	38.1 µM	29.8 µM	29.8	48.3	30.4 µM	27 µM	27.7 µM	34.8 µM	30 µM	–	–	–	–	–	–	–	–	–
COC(=O)C(Cc1ccc([N+](=O)[O-])cc1)NC(=O)C(CC(=O)OC(C)(C)C)NC(=O)OC(C)(C)C (stereo unspecified) (Boc-Asp(OtBu)-[Phe(4-NO2)]-OMe; configuration not given here)	> 100 µM	> 100 µM	> 100 µM	68.4	> 100	> 100 µM	> 100 µM	> 100 µM	> 100 µM	29.6 µM	–	–	–	–	–	–	–	–	–
c1csc(-c2ccc(-c3ccc(-c4cccs4)s3)s2)c1	> 100 µM	> 100 µM	> 100 µM	> 100	> 100	> 100 µM	> 100 µM	> 100 µM	> 100 µM	> 100 µM	–	–	–	–	–	–	–	–	–
CC(=O)Oc1ccc2c(c1)c1c(OC(C)=O)c3ccccc3c(OC(C)=O)c1n2Cc1cccc(C)c1	> 100 µM	> 100 µM	> 100 µM	> 100	> 100	52.8 µM	> 100 µM	> 100 µM	> 100 µM	> 100 µM	–	–	–	–	–	–	–	–	–
N#Cc1nnc2c3c(-c4ccc(Cl)cc4)c(C#N)c(=O)[nH]c3nn2c1N	30.9 µM	31.6 µM	16.3 µM	43.5	32.6	6.11 µM	14.9 µM	12.6 µM	> 100 µM	20.7 µM	–	–	–	–	–	–	–	–	–
CC(=O)c1nccc2c1c(C)nc1ccccc12	> 100 µM	> 100 µM	> 100 µM	> 100	67.9	> 100 µM	> 100 µM	> 100 µM	> 100 µM	> 100 µM	–	–	–	–	–	–	–	–	–
C/C(=C/CC[C@](C)(OC1OC(CO)C(O)C(O)C1O)[C@H]1CC[C@]2(C)[C@@H]1CC[C@@H]1[C@@]3(C)CC[C@H](O)C(C)(C)[C@@H]3C[C@H](O)[C@]12C)CO (stereo partly specified)	57.5 µM	56.5 µM	> 100 µM	91.5	60.4	42.7 µM	19.4 µM	90.7 µM	> 100 µM	> 100 µM	–	–	–	–	–	–	–	–	–
COc1ccc(CC2C(=O)NC(C)C(=O)N(C)C3Cc4ccc(cc4)Oc4cc(ccc4O)CC(C(=O)NC(C)C(=O)NC(C)C(=O)N2C)N(C)C3=O)cc1 (stereo unspecified)	14.9 µM	–	–	0.0671	0.624	–	0.0731 µM	–	0.979 µM and 0.21 µM	5.75 µM and 4.16 µM	< 0.0001 µM	–	< 0.0001 µM	–	< 0.0001 µM	1.27	< 0.0001	0.00929	0.24
O=C(O)c1ccccc1-c1ccccc1C(=O)c1ccccc1	> 100 µM	> 100 µM	> 100 µM	> 100	> 100	> 100 µM	> 100 µM	> 100 µM	> 100 µM	> 100 µM	–	–	–	–	–	–	–	–	–
O=C(NCCCCl)c1c(O)c2ccccc2[nH]c1=O	> 100 µM	> 100 µM	> 100 µM	> 100	> 100	> 100 µM	> 71.5 µM	> 100 µM	> 100 µM	> 100 µM	–	–	–	–	–	–	–	–	–
Cn1c(=O)c2[nH]c(N/N=C3/SCC(=O)N3Cc3ccccc3)nc2n(C)c1=O	> 100 µM	> 100 µM	45.8 µM	> 100	> 100	> 100 µM	> 100 µM	> 100 µM	> 100 µM	> 100 µM	–	–	–	–	–	–	–	–	–
COc1cc(O)c2c(c1)C(O)C(O)CC1OC1C(=O)/C=C/CC(C)OC2=O (stereo unspecified)	17 µM	6.91 µM	16.3 µM	16.1	33.9	8.07 µM	5.6 µM	46.3 µM	17.5 µM	17.1 µM	–	–	–	–	–	–	–	–	–
C[C@@H](C[C@@H](O)[C@H](O)C(C)(C)O)[C@H]1CC=C2[C@]3(C)[C@H](O)C[C@H]4C(C)(C)[C@H](O)CC[C@]4(C)[C@H]3CC[C@@]21C	36.1 µM	28 µM	36.7 µM	27.4	41.1	28 µM	35.7 µM	32.2 µM	32.4 µM	28.7 µM	–	–	–	–	–	–	–	–	–
CSCCC(NC(=O)C(CC(C)C)NC(=O)CNC(=O)OC(C)(C)C)C(=O)N(C)C (stereo not drawn) (Boc-Gly-Leu-Met-NMe2; configuration not given here)	> 100 µM	> 100 µM	> 100 µM	> 100	> 100	> 100 µM	> 100 µM	> 100 µM	> 100 µM	> 100 µM	–	–	–	–	–	–	–	–	–
